Earlier results, collected in patent publication US20050002962A1, “Immunostimulatory agents in botanicals” (priority 2003, published 2005).

Tests used:
mice = details: mouse, in vivo
macrophages = details: 250 μg/ml

Molecule	carbon clearance (mice)	macrophage IL-1 production, of maximal E. coli LPS (10 μg/ml) (macrophages)	macrophage interferon-β production versus maximal E. coli LPS (10 μg/ml) (macrophages)
O=C(/C=C/c1ccc(O)c(O)c1)O[C@@H](C(=O)O)[C@@H](OC(=O)/C=C/c1ccc(O)c(O)c1)C(=O)O [cichoric acid, Cichoric acid]	enhanced carbon clearance		
arabinogalactan		20%	equal to
echinacoside	inactive		
